The values below come from ChEMBL document CHEMBL4765305, “Elephantopinolide A-P, germacrane-type sesquiterpene lactones from Elephantopus scaber induce apoptosis, autophagy and G2/M phase arrest in hepatocellular carcinoma cells” (Eur J Med Chem, 2020).

Experiment [1] concerns Hep 3B2. Kind of experiment: Induction of apoptosis in human Hep3B cells assessed as nuclear condensation at 3 to 9 uM incubated for 48 hrs by Hoechst 33258 staining based fluorescence microscopy analysis. Type of experiment: functional, cell-based. The conditions noted are these: dose 3-9 µM.
The test system of experiment [2] is Hep 3B2. The experiment in a line: Induction of apoptosis in human Hep3B cells assessed as early apoptotic cells at 3 uM incubated for 48 hrs by AnnexinV-FITC and propidium iodide staining based flow cytometry analysis (reference value: 3.05%). Type of experiment: functional. A general note: Flow cytometry measures light scatter and fluorescence of single cells or particles in a stream.

The test system of experiment [3] is Hep 3B2. The experiment in a line: Induction of apoptosis in human Hep3B cells assessed as early apoptotic cells at 9 uM incubated for 48 hrs by AnnexinV-FITC and propidium iodide staining based flow cytometry analysis (reference value: 3.05%). The class given is functional.
Experiment [4] deals with Hep 3B2. Kind of experiment: Induction of apoptosis in human Hep3B cells assessed as late apoptotic cells at 3 uM incubated for 48 hrs by AnnexinV-FITC and propidium iodide staining based flow cytometry analysis (reference value: 3.32%). The class given is functional.
Experiment [5] concerns Hep 3B2. Kind of experiment: Induction of apoptosis in human Hep3B cells assessed as late apoptotic cells at 9 uM incubated for 48 hrs by AnnexinV-FITC and propidium iodide staining based flow cytometry analysis (reference value: 3.32%). Type of experiment: functional.
For experiment [6], the system named is HepG2. The experiment in a line: Induction of apoptosis in human HepG2 cells assessed as late apoptotic cells at 6 uM incubated for 48 hrs by AnnexinV-FITC and propidium iodide staining based flow cytometry analysis (reference value: 2.46%). The class given is functional.
Experiment [7] has as its system Hep 3B2. Kind of experiment: Induction ROS generation in human Hep3B cells assessed as intracellular ROS level measured after 15 mins by H2DCF-DA probe based flow cytometry (reference value: 4.24 %). The class given is functional. The conditions noted are these: 0.25 h.
Experiment [8] has as its system HepG2. The experiment in a line: Induction ROS generation in human HepG2 cells assessed as intracellular ROS level measured after 1 hrs by H2DCF-DA probe based flow cytometry (reference value: 5.05%). Type of experiment: functional.
The subject of experiment [9] is HepG2. The experiment in a line: Induction ROS generation in human HepG2 cells assessed as intracellular ROS level measured after 30 mins by H2DCF-DA probe based flow cytometry (reference value: 5.05%). The class given is functional. The conditions noted are these: 0.5 h.
Experiment [10] relates to Hep 3B2. Kind of experiment: Induction of cell cycle arrest in human Hep3B cells assessed as accumulation at G2/M phase by PI-staining based flow cytometric analysis. The class given is functional.
Experiment [11] deals with HepG2. Kind of experiment: Activation of p-38 phosphorylation in human HepG2 cells by Western blot analysis. The class given is cell-based. The conditions noted are these: filed as activator, dose 3-9 µM. For orientation: A western blot detects proteins with antibodies after separation by electrophoresis.

SMILES strings stand for the structures. The source made the active and inactive calls. The rule behind the calls is not given here.

Turning to `C=C(C)C(=O)O[C@H]1CC2=C[C@@H](C[C@@]3(C)O[C@H]3[C@H]3OC(=O)C(=C)[C@@H]31)OC2=O`, the result in the experiment on Hep 3B2 [1] and with Hep 3B2 [10] was Active. The Activity was 5.14% in the experiment on Hep 3B2 [2]; 15.5% with Hep 3B2 [3]; 5.56% with Hep 3B2 [4]; 31.9% in the experiment on Hep 3B2 [5]; 13.2% in the experiment on HepG2 [6]; 19.5% in the experiment on Hep 3B2 [7]. Besides, the figures for the Activity in the experiment with HepG2 [8], in the experiment on HepG2 [9] and in the experiment on HepG2 [11] were 14.6%, 28.9% and “Dose-dependent effect”, respectively.
